Reference: patent US5461057A, “Hydro-ethano-indeno-pyridines” (priority 1994, dated 1995)
Where two headings read alike, the source gives them in different places.

How the values were obtained:
[1] = tested on: histamine-induced dyspnea; experiment: Bronchodilator (in vivo) Guinea Pig Dyspnea; conditions: oral, one hour before histamine challenge; for DYSP survivors / responders at 100 mg/kg: 100 mg/kg
Protocol: Unanesthetized guinea pigs (250-350 g), fasted overnight were placed in individual closed aerosol chambers which were connected to a Monoghan Ultrasonic nebulizer. The nebulizer can deliver an ultrasonic fog of uniform particles in a range of 1-8 microns. A 0.1% solution of histamine is aerosolized into the chambers causing the guinea pigs to develop dyspnea. The test drug was given orally one hour before the histamine challenge and the onset of dyspnea was recorded. Saline control animals developed dyspnea within 90-120 seconds of aerosol exposure. […] The data was expressed as the number tested over the number survived. The model was sensitive to bronchodilator and H1 antihistamine activity. Further information relating this test can be obtained from the following two publications which are hereby incorporated by reference: Dungan, K. W. and Lish, P. M. J Allergy 32:139-151 (1961). and Lish, P. M., Robbins, S. I. and Petres E. L. J. Pharmacol. Exp. Therap. 153 L 1538 (1966 ).

[2] = tested on: LOX human melanoma cell adhesion to human fibronectin; experiment: LOX melanoma cell adhesion to fibronectin; assay type: cell-based; conditions: Homo sapiens, LOX; for inhibition at 10 µM: read-out: % Inhibition at 10 μM; for inhibition at 50 µM: read-out: % Inhibition at 50 μM; for IC50: Table 4, 1 hour adhesion, read-out: LOX FN IC50
Protocol: (§1) Adhesion assays were run essentially as described previously (Pai et al., J. Biomed. Res. 2: 53, 1992). 96-well plates were coated with human fibronectin (140 ng/well), human vitronectin (75 ng/well), human collagen I (100 ng/well), human collagen IV (100 ng/well), human fibrinogen (1 μg/well), murine laminin (600 ng/well), or polylysine, and incubated overnight in a humidified 37° C. incubator. Excess fibronectin or other substrate was then removed and 0.2 ml of 2 mg/ml bovine serum albumin (BSA)in Dulbecco's phosphate-buffered saline (DPBS) was added to each well, incubated for 2 hours at 37° C., and removed. LOX human melanoma cells, M27 murine lung carcinoma cells or B16F10 mouse melanoma cells were detached from tissue culture flasks with RPMI medium containing 0.2M urea and 10 mM EDTA, and 0.18 ml of cells were added to each well to a final cell concentration of 1×10^5 cells/well. For inhibition studies 20 μl of 10× compound was added to the wells prior to cell addition. Cells were allowed to adhere for 1 hour at 37° C. The wells were then gently washed twice with 0.2 ml DPBS. The fluorescent dye calcein AM (Molecular Probes, Eugene Oreg.) in DPBS (0.1 ml of 1 μM) was added to each well, and the plates were incubated for 1 hour at room temperature. Adherent cells were quantitated by reading the fluorescence on a Cytofluor 2300 fluorescent plate reader (Millipore) at 485 nm excitation and 530 nm emission.
LOX FN-IC50 value for inhibition of adhesion of LOX human melanoma cells to fibronectin coated on a plastic surface.

[3] = tested on: pulmonary resistance; experiment: Pulmonary Resistance in the Anesthetized Rat; assay type: in vivo; conditions: Rattus norvegicus, iv; 0.5 mpk, i.v.; mean of 5 animals; % decrease in pre-drug baseline resistance; read-out: Pulmonary Resistance in Rats, % Inhibition
Protocol: Rats (400-500 g) anesthetized with dialurethane were surgically prepared with tracheal and esophageal catheters. These catheters were connected to pressure transducers for recording of air flow, tracheal and esophageal pressures. These pressures formed the basis for measurement of pulmonary resistance. Inhibition of pulmonary resistance is a reflection of bronchodilation.
All compounds were tested i. v. in 5 separate animals. All data are expressed in % decrease in the pre-drug baseline resistance and each number given is the mean of the 5 animals tested.
The model is sensitive to bronchodilator activity.
Further information relating this test can be obtained from the following publications which are hereby incorporated by reference: Comroe et al, J. Appl. Physio. 4:439-44 (1959); Dungan et al J. Pharmacol. Exp. Therap. 164:290-301(1968); and Mead, J. et al. J. Appl. Physio. 5:779-796 (1953).

[4] = tested on: LOX human melanoma cell adhesion to polylysine; experiment: LOX melanoma cell adhesion to polylysine; assay type: cell-based; conditions: read-out: Poly Lys IC50
Protocol: as §1

[5] = Calcein cytotoxicity assay; assay type: cell-based; conditions: human, lox melanoma cells; 2 hours, calcein AM assay; read-out: 2 Hr Tox LD50
Protocol: LOX human melanoma cells were detached from tissue culture flasks with RPMI medium containing 0.2M urea and 10 mM EDTA, and 0.18 ml of cells were added to each well to a final cell concentration of 5×10^4 cells/well. 20 μl of 10× compound was added to the wells prior to cell addition. Cells were incubated with the compound at 37° C. for 1 hour or 5 hour as indicated. Calcein AM in DPBS (0.02 ml of 5 μM) was added to each well, and the plates were incubated for an additional 1 hour at room temperature. Viable cells were quantitated by reading the fluorescence on a Cytofluor 2300 fluorescent plate reader at 485 nm excitation and 530 nm emission.

[6] = Cavia porcellus, 1 h, read-out: DYSP survivors (converted)

Structure (SMILES)	inhibition at 10 µM [2]	inhibition at 50 µM [2]	responders at 100 mg/kg [1, 6]	also measured
CN1C2CCC1C1c3ccccc3C(O)(c3cccc(Cl)c3)C1C2 (stereo not shown) [QQ]	9.2%	21.1%	–	responders at 50 mg/kg [1, 6]: 33.3%; inhibition in vivo at 0.5 mg/kg [3]: -30%
CN1C2CCC1C1C(=C(c3cccc(F)c3)c3ccccc31)C2 (stereo not shown) [O]	5.2%	97.1%	–	DYSP survivors [1]: 0/3; IC50 [4]: 130 µM; CC50 at 2 h [5]: 72 µM; IC50 [2]: 11.2 µM
CN1C2CCC1C1c3ccc(Cl)cc3C(O)(c3ccccc3)C1C2 (stereo not shown) [YY]	-14.6%	7.4%	66.7%	responders at 50 mg/kg [1, 6]: 100%
CN1C2CCC1C1c3cc(Cl)ccc3C(O)(c3ccc(F)cc3)C1C2 (stereo not shown) [LL]	-12.2%	26.6%	–	–
CN1C2CCC1C1c3ccccc3C(O)(c3cccc(C(F)(F)F)c3)C1C2 (stereo not shown) [NN]	9.4%	24.7%	–	responders at 50 mg/kg [1, 6]: 0%
Cc1ccc(C2(O)c3ccccc3C3C4CCC(CC32)N4C)cc1 (stereo not shown) [OO]	6.6%	23.7%	33.3%	inhibition in vivo at 0.5 mg/kg [3]: -18%
CN1C2CCC1C1c3ccccc3C(O)(c3ccc(Cl)cc3)C1C2 (stereo not shown) [HH]	2.5%	36.9%	33.3%	–
CN1C2CCC1C1c3ccccc3C(O)(c3ccc4c(c3)OCO4)C1C2 (stereo not shown) [WW]	1.2%	11.9%	–	inhibition in vivo at 0.5 mg/kg [3]: 39%
CN1C2CCC1C1C(=C(c3cccc(Cl)c3)c3ccccc31)C2 (stereo not shown) [D]	56.5%	101%	–	DYSP survivors [1]: 1/3; IC50 [4]: 71.9 µM; CC50 at 2 h [5]: 34.6 µM; IC50 [2]: 7.4 µM
CN1C2CCC1C1C(=C(c3ccccc3)c3cc(F)ccc31)C2 (stereo not shown) [I]	35.6%	100%	–	DYSP survivors [1]: 1/3; IC50 [4]: 22.8 µM; CC50 at 2 h [5]: 55.9 µM; IC50 [2]: 7.6 µM
CN1C2CCC1C1c3ccccc3C(O)(c3ccccc3C(F)(F)F)C1C2 (stereo not shown) [TT]	16.7%	16.1%	–	responders at 50 mg/kg [1, 6]: 0%; inhibition in vivo at 0.5 mg/kg [3]: 7%
CN1C2CCC1C1C(=C(c3ccccc3)c3ccc(F)cc31)C2 (stereo not shown) [M]	18.4%	99.6%	–	DYSP survivors [1]: 0/3; IC50 [4]: 72.7 µM; CC50 at 2 h [5]: 39.8 µM; IC50 [2]: 12.5 µM
CN1C2CCC1C1c3ccc(Cl)cc3C(O)(c3ccc(F)cc3)C1C2 (stereo not shown) [II]	5.4%	34.8%	100%	–
CN1C2CCC1C1C(=C(c3ccc(F)cc3)c3cc(Cl)ccc31)C2 (stereo not shown) [Compound E]	49.5%	100%	–	DYSP survivors [1]: 0/3; IC50 [4]: 46.2 µM; CC50 at 2 h [5]: 21.8 µM; IC50 [2]: 6.2 µM
COc1ccc(C2(O)c3cc(F)ccc3C3C4CCC(CC32)N4C)cc1 (stereo not shown) [CCC]	–	–	66.7%	–
CN1C2CCC1C1c3ccccc3C(O)(c3cccc(F)c3)C1C2 (stereo not shown) [RR]	13.8%	17.6%	66.7%	responders at 50 mg/kg [1, 6]: 0%; inhibition in vivo at 0.5 mg/kg [3]: 28%
CSc1ccc(C2(O)c3ccccc3C3C4CCC(CC32)N4C)cc1 (stereo not shown) [KK]	7.2%	32.8%	–	responders at 50 mg/kg [1, 6]: 0%
COc1ccc(C2(O)c3cc(Cl)ccc3C3C4CCC(CC32)N4C)cc1 (stereo not shown) [XX, 7-Chloro-5-(p-methoxyphenyl)-2-methyl-1,3-ethano-1,2,3,4,4a,9b-hexahydro-5H-indeno[1,2-c]pyridin-5-ol]	-23.1%	8.1%	100%	responders at 10 mg/kg ([1]; Cavia porcellus, 1 h, 10 mg/kg, read-out: DYSP survivors (converted)): 66.7%; responders at 20 mg/kg ([1]; Cavia porcellus, 1 h, 20 mg/kg, read-out: DYSP survivors (converted)): 66.7%; responders at 50 mg/kg [1, 6]: 100%
COc1ccc(C2(O)c3ccc(Cl)cc3C3C4CCC(CC32)N4C)cc1 (stereo not shown) [ZZ]	-9.7%	7%	33.3%	–
COc1ccc(C2c3ccccc3C3C2CC2CCC3N2C)cc1 (stereo not shown) [GG]	7.1%	39.1%	–	DYSP survivors [1]: 2/3
CN1C2CCC1C1c3cc(Cl)ccc3C(O)(c3ccccc3)C1C2 (stereo not shown) [VV]	0.9%	15.9%	100%	–
COc1ccc(C2(O)c3c(Cl)cccc3C3C4CCC(CC32)N4C)cc1 (stereo not shown) [BBB]	-11.8%	5.6%	33.3%	–
CN1C2CCC1C1=C(C2)C(c2ccccc2)c2cc(O)ccc21 (stereo not shown) [BB]	–	6.5%	–	inhibition at 10 µM ([2]; 1 h): -38.2%
CN1C2CCC1C1=C(C2)C(c2cccs2)c2ccccc21 (stereo not shown) [GGG]	-27.6%	64.4%	–	–
CN1C2CCC1C1C(=C(c3cccc(F)c3)c3cc(F)ccc31)C2 (stereo not shown) [Compound G]	38.1%	101%	–	DYSP survivors [1]: 1/3; IC50 [4]: 63 µM; CC50 at 2 h [5]: 29.5 µM; IC50 [2]: 5.3 µM
